Each block holds one compound with its values, some of them ahead of it.
How the values were obtained:
[1] = target: T1, Muscarinic acetylcholine receptor M1 (Homo sapiens) (UniProt P11229); assay: Ability to displace [3H]N-methylscopolamine binding to M1 human recombinant muscarinic receptor in CHO cells at concentration 10 uM; format: cell-based
T1 sequence (whole entry): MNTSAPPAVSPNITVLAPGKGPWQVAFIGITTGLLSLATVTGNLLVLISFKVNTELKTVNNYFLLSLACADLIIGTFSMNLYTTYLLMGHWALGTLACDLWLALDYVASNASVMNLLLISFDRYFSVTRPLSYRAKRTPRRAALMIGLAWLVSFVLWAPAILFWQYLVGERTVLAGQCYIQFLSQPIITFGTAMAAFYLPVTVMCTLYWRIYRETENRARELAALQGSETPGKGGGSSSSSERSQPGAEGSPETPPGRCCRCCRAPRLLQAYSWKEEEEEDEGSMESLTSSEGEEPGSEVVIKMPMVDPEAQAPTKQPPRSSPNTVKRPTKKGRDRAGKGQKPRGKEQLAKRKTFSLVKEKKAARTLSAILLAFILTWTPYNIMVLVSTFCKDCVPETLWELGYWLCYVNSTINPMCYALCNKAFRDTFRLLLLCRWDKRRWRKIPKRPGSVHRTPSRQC

[2] = target: T2, Muscarinic acetylcholine receptor M2 (Homo sapiens) (UniProt P08172); assay: Ability to displace [3H]N-methylscopolamine binding to M2 human recombinant muscarinic receptor in CHO cells at concentration 1 uM; format: cell-based
T2 sequence (whole entry): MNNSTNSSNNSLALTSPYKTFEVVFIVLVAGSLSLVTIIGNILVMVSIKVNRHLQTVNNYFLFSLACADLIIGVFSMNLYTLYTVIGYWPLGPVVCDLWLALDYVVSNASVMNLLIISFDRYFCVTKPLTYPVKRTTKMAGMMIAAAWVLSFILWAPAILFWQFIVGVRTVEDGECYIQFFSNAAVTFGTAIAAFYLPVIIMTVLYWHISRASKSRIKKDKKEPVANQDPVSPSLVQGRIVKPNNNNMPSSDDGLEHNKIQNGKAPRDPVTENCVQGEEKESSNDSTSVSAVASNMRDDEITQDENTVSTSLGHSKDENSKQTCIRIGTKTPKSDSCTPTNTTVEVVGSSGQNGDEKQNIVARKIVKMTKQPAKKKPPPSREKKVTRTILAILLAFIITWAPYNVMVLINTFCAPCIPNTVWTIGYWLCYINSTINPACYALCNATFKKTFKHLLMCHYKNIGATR

[3] = target: T2, Muscarinic acetylcholine receptor M2 (Homo sapiens); assay: Ability to displace [3H]N-methylscopolamine binding to M2 human recombinant muscarinic receptor in CHO cells at concentration 10 uM; format: cell-based
[4] = target: Muscarinic acetylcholine receptor M3 (Homo sapiens) (UniProt P20309); assay: Ability to displace [3H]N-methylscopolamine binding to M3 human recombinant muscarinic receptor in CHO cells at concentration 10 uM; format: cell-based
Sequence of Muscarinic acetylcholine receptor M3 (Homo sapiens) (P20309 whole entry, looked up): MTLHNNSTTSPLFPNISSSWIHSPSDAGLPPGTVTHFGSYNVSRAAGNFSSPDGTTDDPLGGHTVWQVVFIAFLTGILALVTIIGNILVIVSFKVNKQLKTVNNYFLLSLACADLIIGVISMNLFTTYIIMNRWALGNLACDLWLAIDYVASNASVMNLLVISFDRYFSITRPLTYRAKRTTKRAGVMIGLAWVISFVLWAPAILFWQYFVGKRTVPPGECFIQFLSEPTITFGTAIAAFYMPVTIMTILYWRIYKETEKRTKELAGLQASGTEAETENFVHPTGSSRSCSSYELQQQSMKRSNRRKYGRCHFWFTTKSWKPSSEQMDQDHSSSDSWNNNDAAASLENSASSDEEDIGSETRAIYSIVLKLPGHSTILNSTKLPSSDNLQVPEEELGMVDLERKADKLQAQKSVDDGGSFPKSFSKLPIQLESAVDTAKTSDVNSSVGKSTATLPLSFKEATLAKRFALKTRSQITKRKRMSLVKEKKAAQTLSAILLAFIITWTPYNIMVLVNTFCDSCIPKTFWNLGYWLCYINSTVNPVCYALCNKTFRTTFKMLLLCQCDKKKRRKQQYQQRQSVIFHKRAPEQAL

[5] = target: T1, Muscarinic acetylcholine receptor M1 (Homo sapiens); assay: Ability to displace [3H]N-methylscopolamine binding to M1 human recombinant muscarinic receptor in CHO cells at concentration 1 uM; format: cell-based
[6] = target: T3, Neuronal acetylcholine receptor (Rattus norvegicus) (UniProt P04757+P09483+P12389+P12390+P12392+P43144+Q9JLB5+P12391+P43143+P20420+Q05941); assay: Ability to displace [3H]cytisine binding to nicotinic receptor in synaptic membrane fractions from rat cerebral cortices at a concentration of 10 uM.; format: cell membranes
[7] = target: Muscarinic acetylcholine receptor M3 (Homo sapiens) (UniProt P20309); assay: Ability to displace [3H]N-methylscopolamine binding to M3 human recombinant muscarinic receptor in CHO cells at concentration 1 uM; format: cell-based
[8] = target: T4, Muscarinic acetylcholine receptor M1 (Homo sapiens, UniProt P11229); assay: The compound was tested for its binding affinity against M1 human recombinant muscarinic receptor in CHO cells.; format: cell-based
T4 sequence (P11229 whole entry): T1 sequence (whole entry)

[9] = target: T3, Neuronal acetylcholine receptor (Rattus norvegicus); assay: Ability to displace [3H]cytisine binding to Nicotinic acetylcholine receptor in synaptic membrane fractions from rat cerebral cortices at a concentration of 10 uM.; format: cell membranes

Structure (SMILES): Cc1ccc(-c2cc(/C=C3/CN4CCC3CC4)on2)cc1
inhibition [1]: 7% | inhibition [2]: 2% | inhibition [3]: 14% | inhibition [4]: 15% | inhibition [5]: 7% | inhibition [6]: 70% | inhibition [7]: 3%

Structure (SMILES): COc1ccc(-c2cc(/C=C3/CN4CCC3CC4)on2)cc1OC
inhibition [1]: 81% | inhibition [2]: 30% | inhibition [3]: 71% | inhibition [4]: 46% | inhibition [5]: 28% | inhibition [6]: 90% | inhibition [7]: 6%

Structure (SMILES): CC(C)(C)OC(=O)Nc1ccc(-c2cc(/C=C3/CN4CCC3CC4)on2)cc1
inhibition [1]: 95% | inhibition [2]: 16% | inhibition [3]: 67% | inhibition [4]: 87% | IC50 [8]: 806 nM | inhibition [5]: 57% | inhibition [6]: 43% | inhibition [7]: 31%

Structure (SMILES): Oc1ccc(-c2cc(/C=C3\CN4CCC3C4)on2)cc1O (stereo unspecified)
inhibition [1]: 0% | inhibition [2]: 0% | inhibition [3]: 0% | inhibition [4]: 0% | inhibition [5]: 0% | inhibition [7]: 0%

Structure (SMILES): COc1ccc(COc2ccc(-c3cc(/C=C4\CN5CCC4CC5)on3)cc2OCc2ccc(OC)cc2)cc1
inhibition [1]: 100% | inhibition [2]: 49% | inhibition [3]: 92% | inhibition [4]: 98% | IC50 [8]: 260 nM | inhibition [5]: 85% | inhibition [6]: 0% | inhibition [7]: 76%

Structure (SMILES): CC(C)(C)OC(=O)Nc1ccc(-c2cc(/C=C3\CN4CCC3CC4)on2)cc1
inhibition [1]: 59% | inhibition [2]: 14% | inhibition [3]: 36% | inhibition [4]: 41% | IC50 [8]: > 10 nM | inhibition [5]: 12% | inhibition [6]: 64% | inhibition [7]: 5%

Structure (SMILES): COc1ccc(-c2cc(/C=C3/CN4CCC3CC4)on2)cc1
inhibition [1]: 79% | inhibition [2]: 16% | inhibition [3]: 63% | inhibition [4]: 63% | inhibition [5]: 23% | inhibition [6]: 68% | inhibition [7]: 14%

Structure (SMILES): COc1ccc(COc2ccc(-c3cc(/C=C4/CN5CCC4C5)on3)cc2OCc2ccc(OC)cc2)cc1 (stereo unspecified)
inhibition [1]: 91% | inhibition [2]: 24% | inhibition [3]: 78% | inhibition [4]: 82% | IC50 [8]: 1230 nM | inhibition [5]: 39% | inhibition [6]: 0% | inhibition [7]: 9%

Structure (SMILES): COc1ccc(COc2ccc(-c3cc(/C=C4/CN5CCC4CC5)on3)cc2)cc1
inhibition [1]: 93% | inhibition [2]: 26% | inhibition [3]: 83% | inhibition [4]: 52% | IC50 [8]: 250 nM | inhibition [5]: 89% | inhibition [6]: 0% | inhibition [7]: 22%

Structure (SMILES): Oc1ccc(-c2cc(/C=C3\CN4CCC3CC4)on2)cc1
inhibition [1]: 2% | inhibition [2]: 0% | inhibition [3]: 7% | inhibition [4]: 0% | inhibition [5]: 0% | inhibition [6]: 72% | inhibition [7]: 0%

Structure (SMILES): Nc1ccc(-c2cc(/C=C3/CN4CCC3C4)on2)cc1 (stereo unspecified)
inhibition [1]: 44% | inhibition [2]: 1% | inhibition [3]: 4% | inhibition [4]: 10% | inhibition [5]: 7% | inhibition [6]: 49% | inhibition [7]: 0%

inhibition [1]: 53% | inhibition [2]: 10% | inhibition [3]: 53% | inhibition [4]: 53% | inhibition [5]: 3% | inhibition [6]: 75% | inhibition [7]: 0%
Structure (SMILES): CC(C)(C)OC(=O)Nc1ccc(-c2cc(/C=C3\CN4CCC3C4)on2)cc1 (stereo unspecified)

Structure (SMILES): Fc1ccc(-c2cc(/C=C3\CN4CCC3CC4)on2)cc1
inhibition [1]: 0% | inhibition [2]: 13% | inhibition [3]: 22% | inhibition [4]: 10% | inhibition [5]: 0% | inhibition [6]: 19% | inhibition [7]: 0%

Structure (SMILES): C(=C1/CN2CCC1CC2)/c1cc(-c2ccccc2)no1
inhibition [1]: 13% | inhibition [2]: 3% | inhibition [3]: 26% | inhibition [4]: 17% | inhibition [5]: 0% | inhibition [7]: 5%

inhibition [1]: 66% | inhibition [5]: 39% | inhibition [6]: 0%
Structure (SMILES): COc1ccc(COc2ccc(-c3cc(/C=C4/CN5CCC4C5)on3)cc2)cc1 (stereo unspecified)

Structure (SMILES): Fc1ccc(-c2cc(/C=C3/CN4CCC3CC4)on2)cc1
inhibition [1]: 6% | inhibition [5]: 0% | inhibition [6]: 19%

Structure (SMILES): COc1ccc(COc2ccc(-c3cc(/C=C4\CN5CCC4C5)on3)cc2OCc2ccc(OC)cc2)cc1 (stereo unspecified)
inhibition [1]: 100% | inhibition [2]: 77% | inhibition [3]: 95% | inhibition [4]: 98% | IC50 [8]: 114 nM | inhibition [5]: 87% | inhibition [6]: 0% | inhibition [7]: 88%

Structure (SMILES): Cc1ccc(-c2cc(/C=C3\CN4CCC3CC4)on2)cc1
inhibition [1]: 0% | inhibition [2]: 0% | inhibition [3]: 13% | inhibition [4]: 0% | inhibition [5]: 0% | inhibition [6]: 26% | inhibition [7]: 0%

inhibition [1]: 58% | inhibition [2]: 3% | inhibition [3]: 23% | inhibition [4]: 35% | inhibition [5]: 0% | inhibition [6]: 74% | inhibition [7]: 26%
Structure (SMILES): CC(C)(C)OC(=O)Nc1ccc(-c2cc(/C=C3/CN4CCC3C4)on2)cc1 (stereo unspecified)

Structure (SMILES): COc1ccc(-c2cc(/C=C3\CN4CCC3C4)on2)cc1 (stereo unspecified)
inhibition [1]: 34% | inhibition [2]: 7% | inhibition [3]: 24% | inhibition [4]: 2% | inhibition [5]: 0% | inhibition [9]: 55% | inhibition [7]: 0%

Structure (SMILES): COc1ccc(-c2cc(/C=C3\CN4CCC3CC4)on2)cc1
inhibition [1]: 21% | inhibition [2]: 10% | inhibition [3]: 19% | inhibition [4]: 18% | inhibition [5]: 0% | inhibition [6]: 25% | inhibition [7]: 3%

Structure (SMILES): COc1ccc(-c2cc(/C=C3/CN4CCC3C4)on2)cc1 (stereo unspecified)
inhibition [1]: 45% | inhibition [2]: 15% | inhibition [3]: 19% | inhibition [4]: 0% | inhibition [5]: 8% | inhibition [9]: 58% | inhibition [7]: 0%

Structure (SMILES): COc1ccc(COc2ccc(-c3cc(/C=C4\CN5CCC4CC5)on3)cc2)cc1
inhibition [1]: 64% | inhibition [2]: 55% | inhibition [3]: 46% | inhibition [4]: 37% | IC50 [8]: 809 nM | inhibition [5]: 77% | inhibition [6]: 0% | inhibition [7]: 31%

Structure (SMILES): Oc1ccc(-c2cc(/C=C3/CN4CCC3C4)on2)cc1 (stereo unspecified)
inhibition [1]: 26% | inhibition [2]: 6% | inhibition [3]: 3% | inhibition [4]: 11% | inhibition [5]: 0% | inhibition [6]: 81% | inhibition [7]: 0%

Structure (SMILES): C(=C1\CN2CCC1CC2)/c1cc(-c2ccccc2)no1
inhibition [1]: 51% | inhibition [2]: 0% | inhibition [3]: 38% | inhibition [4]: 48% | inhibition [5]: 7% | inhibition [6]: 48% | inhibition [7]: 12%

inhibition [1]: 84% | inhibition [5]: 69% | inhibition [9]: 0%
Structure (SMILES): COc1ccc(COc2ccc(-c3cc(/C=C4\CN5CCC4C5)on3)cc2)cc1 (stereo unspecified)

Structure (SMILES): Nc1ccc(-c2cc(/C=C3\CN4CCC3CC4)on2)cc1
inhibition [1]: 4% | inhibition [2]: 0% | inhibition [3]: 5% | inhibition [4]: 0% | inhibition [5]: 0% | inhibition [9]: 77% | inhibition [7]: 0%

Structure (SMILES): COc1ccc(-c2cc(/C=C3\CN4CCC3CC4)on2)cc1OC
inhibition [1]: 22% | inhibition [2]: 14% | inhibition [3]: 22% | inhibition [4]: 7% | inhibition [5]: 3% | inhibition [6]: 58% | inhibition [7]: 0%

Structure (SMILES): Oc1ccc(-c2cc(/C=C3/CN4CCC3C4)on2)cc1O (stereo unspecified)
inhibition [1]: 16% | inhibition [2]: 6% | inhibition [3]: 9% | inhibition [4]: 0% | inhibition [5]: 0% | inhibition [6]: 64% | inhibition [7]: 0%

Structure (SMILES): COc1ccc(COc2ccc(-c3cc(/C=C4/CN5CCC4CC5)on3)cc2OCc2ccc(OC)cc2)cc1
inhibition [1]: 100% | inhibition [2]: 27% | inhibition [3]: 89% | inhibition [4]: 94% | IC50 [8]: 247 nM | inhibition [5]: 85% | inhibition [6]: 0% | inhibition [7]: 44%

Structure (SMILES): Oc1ccc(-c2cc(/C=C3\CN4CCC3C4)on2)cc1 (stereo unspecified)
inhibition [1]: 0% | inhibition [2]: 1% | inhibition [3]: 10% | inhibition [4]: 20% | inhibition [5]: 0% | inhibition [6]: 36% | inhibition [7]: 10%
